Patent US20230374034A1, “NOVEL BICYCLIC COMPOUNDS” (PRISM BIOLAB CO., LTD., priority 2020, published 2023)
Read-outs that look alike come from different tables or passages of the source.

System: NICD (Notch intracellular domain) CSL-bla reporter in HeLa cells
Assay: Notch assay (CellSensor T-REx NICD CSL-bla HeLa beta-lactamase reporter; Method 1 / Method 2)
Type: cell-based
Conditions: Homo sapiens, 10 μM compound, read-out: inhibiton (%) at 10 μM
Procedure, shortened: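 HeLa cells carrying doxycycline-inducible NICD and a CSL-driven beta-lactamase reporter, 10^3 cells/well, were treated with compound plus doxycycline for 16-20 h at 37 °C. CCF4-AM substrate was loaded for 4 h at room temperature; background-subtracted blue (460 nm)/green (530 nm) emission ratio taken per well.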

[1] = Method 2 (40 nL of 1000× compound added to plate with Echo)
[2] = Method 1 (10× compound prepared in assay medium, added to plated cells)

Row | SMILES | inhibition at 10 µM [1] [%] | inhibition at 10 µM [2] [%]
1 | O=C(NCCCO)[C@H](Cc1ccccc1)N1CC2N(C(=O)OCCc3ccc(O)cc3)O[C@H](Cc3ccccc3)C(=O)N2[C@@H](Cc2ccccc2)C1=O (stereo partly drawn) [Compound I-81, 4-hydroxyphenethyl (3R,6S)-3,6-dibenzyl-8-((S)-1-((3-hydroxypropyl)amino)-1-oxo-3-phenylpropan-2-yl)-4,7-dioxohexahydro-pyrazino[2,1-c] [1,2,4]oxadiazine-1(6H)-carboxylate] | 53 | 
2 | CC(C)C[C@H]1ON(C(=O)OCc2ccccc2)[C@H]2CN(C3CCN(C)CC3)C(=O)[C@H](CCCCNCc3ccc4ccccc4n3)N2C1=O [Compound I-145, benzyl (3R,6S,9aS)-3-isobutyl-8-(1-methylpiperidin-4-yl)-4,7-dioxo-6-(4-((quinolin-2-ylmethyl)amino)butyl) hexahydropyrazino[2,1-c][1,2,4]oxadiazine-1(6H)-carboxylate] | 89 | 
3 | CCCCCOC(=O)N1O[C@H](CC(C)C)C(=O)N2C1CN([C@@H](Cc1ccccc1)C(=O)NCCC(C)C)C(=O)[C@@H]2Cc1ccc(O)cc1 (stereo partly drawn) [Compound I-92, pentyl (3R,6S)-6-(4-hydroxybenzyl)-3-isobutyl-8-((S)-1-(isopentylamino)-1-oxo-3-phenylpropan-2-yl)-4,7-dioxohexahydropyrazino[2,1-c][1,2,4]oxadiazine-1(6H)-carboxylate] | 50.1 | 
4 | CC(C)CCNC(=O)[C@H](CC(C)C)N1CC2N(C(=O)OCCc3ccc(O)cc3)O[C@H](CC(C)C)C(=O)N2[C@@H](Cc2ccc(O)cc2)C1=O (stereo partly drawn) [Compound I-91, 4-hydroxyphenethyl (3R,6S)-6-(4-hydroxybenzyl)-3-isobutyl-8-((S)-1-(isopentylamino)-4-methyl-1-oxopentan-2-yl)-4,7-dioxohexahydropyrazino[2,1-c][1,2,4]oxadiazine-1(6H)-carboxylate] | 51 | 
5 | CC(C)C[C@H]1ON(C(=O)OCc2cccc3ccccc23)C2CN(C3CCN(C)CC3)C(=O)[C@H](CC(C)C)N2C1=O (stereo partly drawn) [Compound I-137, naphthalen-1-ylmethyl (3R,6S)-3,6-diisobutyl-8-(1-methylpiperidin-4-yl)-4,7-dioxohexahydropyrazino[2,1-c][1,2,4]oxadiazine-1(6H)-carboxylate] | 81.8 | 
6 | CCCCCOC(=O)N1O[C@H](Cc2ccccc2)C(=O)N2C1CN([C@@H](CC(C)C)C(=O)NCCCc1ccc(O)cc1)C(=O)[C@@H]2CCC(N)=O (stereo partly drawn) [Compound I-127, pentyl (3R,6S)-6-(3-amino-3-oxopropyl)-3-benzyl-8-((S)-1-((3-(4-hydroxyphenyl)propyl)amino)-4-methyl-1-oxopentan-2-yl)-4,7-dioxohexahydropyrazino [2,1-c][1,2,4]oxadiazine-1(6H)-carboxylate] | 62.1 | 
7 | CC(C)CCNC(=O)[C@H](Cc1ccc(O)cc1)N1CC2N(C(=O)OCCC(C)C)O[C@H](CC(C)C)C(=O)N2[C@@H](Cc2ccc(O)cc2)C1=O (stereo partly drawn) [Compound I-94, isopentyl (3R,6S)-6-(4-hydroxybenzyl)-8-((S)-3-(4-hydroxyphenyl)-1-(isopentylamino)-1-oxopropan-2-yl)-3-isobutyl-4,7-dioxohexahydropyrazino[2,1-c][1,2,4]oxadiazine-1(6H)-carboxylate] | 57.8 | 
8 | CC[C@H](C)OC(=O)N1O[C@H](CC2CCCCC2)C(=O)N2C1CN(CCc1ccccc1)C(=O)[C@@H]2CCCCN (stereo partly drawn) [Compound I-38, (3R,6S)-(S)-sec-butyl 6-(4-aminobutyl)-3-(cyclohexylmethyl)-4,7-dioxo-8-phenethylhexahydropyrazino [2,1-c][1,2,4]oxadiazine-1(6H)-carboxylate] | 97.3 | 
9 | CCCC[C@@H](C(=O)NCCc1ccccc1)N1CC2N(C(=O)OCCc3ccc(O)cc3)O[C@H](Cc3ccc(O)cc3)C(=O)N2[C@@H](Cc2ccc(O)cc2)C1=O (stereo partly drawn) [Compound I-119, 4-hydroxyphenethyl (3R,6S)-3,6-bis(4-hydroxybenzyl)-4,7-dioxo-8-((S)-1-oxo-1-(phenethylamino)hexan-2-yl)hexahydropyrazino[2,1-c][1,2,4]oxadiazine-1(6H)-carboxylate] | 55.7 | 
10 | CCCC[C@@H]1ON(C(=O)OCc2cccc3ccccc23)C2CN(C(C)C)C(=O)[C@H](Cc3ccc(O)cc3)N2C1=O (stereo partly drawn) [Compound I-23, (3S,6S)-naphthalen-1-ylmethyl 3-butyl-6-(4-hydroxybenzyl)-8-isopropyl-4,7-dioxohexahydropyrazino[2,1-c][1,2,4]oxadiazine-1(6H)-carboxylate] |  | 50.4
11 | CCCC[C@H]1C(=O)N(CCC(N)=O)CC2N(C(=O)OCc3cccc4ccccc34)O[C@@H](Cc3ccccc3)C(=O)N21 (stereo partly drawn) [Compound I-25, (3S,6S)-naphthalen-1-ylmethyl 8-(3-amino-3-oxopropyl)-3-benzyl-6-butyl-4,7-dioxohexahydropyrazino[2,1-c][1,2,4]oxadiazine-1(6H)-carboxylate] |  | 70.3
12 | CC(C)C[C@@H]1ON(C(=O)OCc2cccc3ccccc23)C2CN(C(C)C)C(=O)[C@H](Cc3ccc(O)cc3)N2C1=O (stereo partly drawn) [Compound I-24, (3S,6S)-naphthalen-1-ylmethyl 6-(4-hydroxybenzyl)-3-isobutyl-8-isopropyl-4,7-dioxohexahydropyrazino[2,1-c][1,2,4]oxadiazine-1(6H)-carboxylate] |  | 68.1
13 | CCCC[C@@H]1ON(C(=O)OCc2ccccc2)C2CN(CCCC)C(=O)[C@H](Cc3ccc(O)cc3)N2C1=O (stereo partly drawn) [Compound I-8, (3S,6S)-benzyl 3,8-dibutyl-6-(4-hydroxybenzyl)-4,7-dioxohexahydropyrazino[2,1-c][1,2,4]oxadiazine-1(6H)-carboxylate] |  | 60.2
14 | CCCCCOC(=O)N1O[C@H](Cc2ccccc2)C(=O)N2C1CN([C@@H](Cc1ccc(O)cc1)C(=O)NCCc1ccccc1)C(=O)[C@@H]2Cc1ccc(O)cc1 (stereo partly drawn) [Compound I-113, pentyl (3R,6S)-3-benzyl-6-(4-hydroxybenzyl)-8-((S)-3-(4-hydroxyphenyl)-1-oxo-1-(phenethylamino)propan-2-yl)-4,7-dioxohexahydropyrazino[2,1-c][1,2,4]oxadiazine-1(6H)-carboxylate] | 62.9 | 
15 | CCCCOC(=O)N1O[C@H](CCC(N)=O)C(=O)N2C1CN(CCO)C(=O)[C@@H]2C (stereo partly drawn) [Compound I-50, (3R,6S)-butyl 3-(3-amino-3-oxopropyl)-8-(2-hydroxyethyl)-6-methyl-4,7-dioxohexahydropyrazino[2,1-c][1,2,4]oxadiazine-1(6H)-carboxylate] | 64.6 | 
16 | NC(=O)C[C@H]1C(=O)N(CCc2ccccc2)CC2N(C(=O)OCC3CCCCC3)O[C@H](Cc3ccc(O)cc3)C(=O)N21 (stereo partly drawn) [Compound I-39, (3R,6S)-cyclohexylmethyl 6-(2-amino-2-oxoethyl)-3-(4-hydroxybenzyl)-4,7-dioxo-8-phenethylhexahydropyrazino [2,1-c][1,2,4]oxadiazine-1(6H)-carboxylate] | 52.1 | 
17 | CCCC[C@H]1ON(C(=O)OCc2cccc3ccccc23)C2CN(Cc3ccccc3)C(=O)[C@H](Cc3ccc(O)cc3)N2C1=O (stereo partly drawn) [Compound I-11, (3R,6S)-naphthalen-1-ylmethyl 8-benzyl-3-butyl-6-(4-hydroxybenzyl)-4,7-dioxohexahydropyrazino[2,1-c][1,2,4]oxadiazine-1(6H)-carboxylate] |  | 51.7
18 | CCCC[C@@H](C(=O)NCCC(C)C)N1CC2N(C(=O)OCCc3ccccc3)O[C@H](Cc3ccccc3)C(=O)N2[C@@H](Cc2ccccc2)C1=O (stereo partly drawn) [Compound I-82, phenethyl (3R,6S)-3,6-dibenzyl-8-((S)-1-(isopentylamino)-1-oxohexan-2-yl)-4,7-dioxohexahydro-pyrazino[2,1-c] [1,2,4]oxadiazine-1(6H)-carboxylate] | 51.2 | 
19 | CC(C)[C@@H]1ON(C(=O)OCc2cccc3ccccc23)C2CN(C(C)C)C(=O)[C@H](Cc3ccc(O)cc3)N2C1=O (stereo partly drawn) [Compound I-22, (3S,6S)-naphthalen-1-ylmethyl 6-(4-hydroxybenzyl)-3,8-diisopropyl-4,7-dioxohexahydropyrazino[2,1-c][1,2,4]oxadiazine-1(6H)-carboxylate] |  | 72.8
20 | O=C1[C@H](CO)N2C(=O)[C@@H](Cc3ccc(O)cc3)ON(C(=O)OCc3ccccc3)C2CN1CCc1cccc2ccccc12 (stereo partly drawn) [Compound I-48, (3R,6S)-benzyl 3-(4-hydroxybenzyl)-6-(hydroxymethyl)-8-(2-(naphthalen-1-yl)ethyl)-4,7-dioxohexahydropyrazino[2,1-c][1,2,4]oxadiazine-1(6H)-carboxylate] | 57.3 | 
21 | C[C@H]1ON(C(=O)OCCc2ccccc2)C2CN([C@@H](Cc3ccccc3)C(=O)NCCC(N)=O)C(=O)[C@H](Cc3ccccc3)N2C1=O (stereo partly drawn) [Compound I-85, phenethyl (3R,6S)-8-((S)-1-((3-amino-3-oxopropyl)amino)-1-oxo-3-phenylpropan-2-yl)-6-benzyl-3-methyl-4,7-dioxohexahydro-pyrazino[2,1-c] [1,2,4]oxadiazine-1(6H)-carboxylate] | 66.5 | 
22 | CCCCCN1CC2N(C(=O)OCC(C)C)O[C@H](CC3CCCCC3)C(=O)N2[C@@H](CCCCN)C1=O (stereo partly drawn) [Compound I-34, (3R,6S)-isobutyl 6-(4-aminobutyl)-3-(cyclohexylmethyl)-4,7-dioxo-8-pentylhexahydropyrazino [2,1-c][1,2,4]oxadiazine-1(6H)-carboxylate] | 120 | 
23 | CCCC[C@@H](C(=O)NCCCC(C)C)N1CC2N(C(=O)OCCc3ccc(O)cc3)O[C@H](Cc3ccccc3)C(=O)N2[C@@H](C)C1=O (stereo partly drawn) [Compound I-122, 4-hydroxyphenethyl (3R,6S)-3-benzyl-6-methyl-8-((S)-1-((4-methylpentyl)amino)-1-oxohexan-2-yl)-4,7-dioxohexahydropyrazino [2,1-c][1,2,4]oxadiazine-1(6H)-carboxylate] | 79.9 | 
